{"source": "patent US20160287553A1", "about": "“TRANSLATION INHIBITORS IN HIGH-DOSE CHEMO- AND/OR HIGH-DOSE RADIOTHERAPY” (DEUTSCHES KREBSFORSCHUNGSZENTRUM, priority 2013, published 2016)", "key": {"[1]": {"tested_on": "murine hematopoietic stem and progenitor cells (HSPCs)", "assay": "Etoposide-induced apoptosis in hematopoietic stem and progenitor cells", "type": "cell-based, mouse", "conditions": "HSPCs (FIG. 1c)", "experimental": "(§1) DNA fragmentation was determined by FACS.\nTo perform lineage depletion, bone marrow cells were incubated on ice for 40 minutes with rat monoclonal antibodies against common epitopes expressed on mature blood and bone marrow cells (CD11b (M1/70), Gr-1 (RB6.8C5), CD4 (GK1.5), CD8a (53.6.7), Ter119 (Ter119) and B220 (RA3-6B2)). Subsequently, cells were washed and incubated for 15 minutes on ice with anti-rat IgG-coated Dynabeads (4.5 μm supermagnetic polystyrene beads, Invitrogen), 1 ml of beads per 3×10^8 bone marrow cells. Cells expressing lineage markers were depleted using a magnet and the remaining lineage-negative cells were isolated and washed. To provide optimal conditions for HSPCs in downstream experiments lineage-negative hematopoietic stem and progenitor-enriched cells were cultured in StemPro®-34 serum-free medium (Invitrogen, Darmstadt, Germany) supplemented with nutrient supplement (Invitrogen, Darmstadt, Germany) as well as recombinant TPO (50 ng/ml, (Peprotech, Hamburg, Germany)), SCF (50 ng/ml, (Peprotech, Hamburg, Germany)) and Flt3-ligand (50 ng/ml, (Peprotech, Hamburg, Germany)).\nNext, we asked whether Roc-A could also protect other normal primary cells from DNA damage-induced toxicity. […]"}, "p53": {"tested_on": "p53", "assay": "p53 protein expression by immunoblot", "type": "cell-based, human", "experimental": "Immunoblot analysis was carried out as previously described (Polier et al., Chem Biol. 2012; 19: 1093-1104). Briefly, 4-20×10^6 cells were treated with different reagents as indicated and lysed in RIPA buffer (50 mM Tris HCl, 137 mM NaCl, 0.5% Na Deoxycholate, 1% Triton X-100, 0.1% SDS, protease inhibitors). Proteins were separated by SDS-PAGE and transferred to a nitrocellulose membrane (Amersham Biosciences, Little Chalfon, UK) using a semi-dry blotting approach. The following antibodies were used: p53 (DO-1) antibody was purchased from Santa Cruz Biotechnology (Heidelberg, Germany). Tubulin and actin (A5441) antibodies were purchased from Sigma-Aldrich (St. Louis, USA).\nThe transcription factor p53 is a major regulator of DNA damage-induced apoptosis (Lowe et al., Cell. 1993; 74: 957-967). Therefore, we investigated the effect of Roc-A on the expression level of p53.\np53 protein expression can be regulated at the level of transcription, translation, and ubiquitination-mediated degradation (Marine & Lozano, Cell Death Differ. 2010; 17: 93-102). It has been shown that upon DNA damage p53 undergoes post-translational modifications leading to its deubiquitination and, thus, stabilization (Lee & Gu, Cell Death Differ. 2010; 17: 86-92). To investigate whether Roc-A could decrease p53 stability, we treated T cells with the proteasome inhibitor Bortezomib to block proteasome-mediated degradation."}, "p53-knockdown T cells": {"tested_on": "p53-knockdown T cells", "assay": "Etoposide-induced cell death in p53 siRNA knock-down T cells", "type": "cell-based, human", "conditions": "Etoposide 50 μM, Roc-A 75 nM, 24 h (FIG. 4a)", "experimental": "as §1\nsiRNAs specific for p53 mRNA was 5′-[…]tt-3′ (SEQ ID NO: 1; [Applied Biosystems, Darmstadt, Germany]). 1.5×10^7 human peripheral blood T cells were transfected with 2 μM of p53 siRNA or of scrambled siRNA (Qiagen, Hilden, Germany) using Amaxa Human T Cell Nucleofector Kit (Lonza, Basel, Switzerland) according to the manufacturer's instructions. The Amaxa Nucleofector program U-014 was used for transfection.\nTo further investigate the role of p53 in Roc-A-mediated protection of T cells against DNA damage-induced apoptosis, we performed a p53 knock-down experiment using a siRNA approach (FIG. 4a, upper panel). […] Therefore, we examined the effect of Roc-A on p53 knock-out (KO) cells."}, "[2]": {"tested_on": "Hut-78 (T cell lymphoma), p53 mutated", "assay": "Etoposide-induced cell death in Hut-78", "type": "cell-based, human", "conditions": "Hut-78 (FIG. 5a)", "experimental": "as §1\n(§2) Since Roc-A-mediated protection of non-malignant cells from DNA-damage-induced cell death is largely p53-dependent, we predicted that Roc-A would not protect cancer cells which have non-functional p53. […] 1997; 19: 243-253), Reh (Zhou et al, loc cit.), SKW6.4 (Barbarotto et al., J Cell Biochem. 2008; 104: 595-605) and NCI-H209 (Fujita et al. Int J Oncol. 1999; 15: 927-934) which have a WT p53 protein."}, "[3]": {"tested_on": "SCLC-21H cells (small cell lung cancer), p53 mutated", "assay": "Etoposide-induced cell death in SCLC-21H", "type": "cell-based, human", "conditions": "SCLC-21H (FIG. 5a)", "experimental": "as §1, §2"}, "[4]": {"tested_on": "HL-60 (promyelocytic leukemia), p53-deficient", "assay": "Etoposide-induced cell death in HL-60", "type": "cell-based, human", "conditions": "HL-60 (FIG. 5a)", "experimental": "as §1, §2"}}, "note": "“Also recorded” adds a separate entry of the source.", "data": [{"smiles": "COc1ccc([C@@]23Oc4cc(OC)cc(OC)c4[C@]2(O)[C@H](O)[C@H](C(=O)N(C)C)[C@H]3c2ccccc2)cc1", "note": "[Roc-A, (1R,2R,3S,3aR,8bS)-1,8b-dihydroxy-6,8-dimethoxy-3a-(4-methoxyphenyl)-N,N-dimethyl-3-phenyl-2,3-dihydro-1H-cyclopenta[b][1]benzofuran-2-carboxamide]", "values": [{"measurement": "Protection against Etoposide-induced apoptosis", "setting": "[1]", "value": "protected"}, {"measurement": "Etoposide-induced p53 increase", "setting": "p53; B cells (FIG. 3d)", "value": "inhibits Etoposide-induced p53 upregulation; also recorded: suppressed"}, {"measurement": "Etoposide-induced p53 increase", "setting": "p53; NK cells (FIG. 3e)", "value": "inhibits Etoposide-induced p53 upregulation; also recorded: suppressed"}, {"measurement": "p53 upregulation by IR, Bleomycin, Teniposide, Doxorubicin", "setting": "p53; T cells (FIG. 3b, f)", "value": "inhibits Etoposide-(a), Bleomycin-, Teniposide- and Doxorubicin-(b) induced p53 upregulation in T cells; also recorded: inhibition was also observed"}, {"measurement": "Upregulation of p53, kinetic analysis", "setting": "p53; T cells, 50 μM Etoposide, 75 nM Roc-A (FIG. 3c)", "value": "could inhibit upregulation of p53 at all time-points analyzed"}, {"measurement": "Etoposide-induced p53 protein expression", "setting": "p53; T cells, increasing Etoposide, different concentrations of Roc-A (FIG. 3a)", "value": "inhibits Etoposide-(a), Bleomycin-, Teniposide- and Doxorubicin-(b) induced p53 upregulation in T cells; also recorded: p53 expression was blocked in a dose-dependent manner"}, {"measurement": "Etoposide-induced apoptosis in p53-knockdown cells", "setting": "p53-knockdown T cells", "value": "could still further down-regulate Etoposide-induced apoptosis in p53-knockdown cells"}, {"measurement": "Protection against Etoposide-induced cell death", "setting": "[2]", "value": "did neither protect"}, {"measurement": "Protection against Etoposide-induced cell death", "setting": "[3]", "value": "did neither protect"}, {"measurement": "Protection against Etoposide-induced cell death", "setting": "[4]", "value": "did neither protect"}]}]}
